The text below walks through data of patent US20160151270A1, “Peptide-Based Compositions and Methods of Use” (Geoffrey Brooks Consultants LLC, priority 2014, published 2016).

In one data set the test system is TGF-β. As to the kind of experiment: TGF-β like activity of cytomodulin analogs. As to conditions: compared with TGF-β and cytomodulin. From the text:
As first introduced in the present inventor's U.S. Pat. No. 5,780,436, which is hereby incorporated by reference in its entirety, using cytomudulin as a guide, two initial cytomodulin analogs, L-I-A-E-A-K (SEQ ID NO: 2) and L-I-A-P-E-A (SEQ ID NO: 3) were designed, synthesized, and tested. In both peptides, -V-A-, was replaced by -I-A- and the first two N-terminal amino acid sequence of cytomodulin was replaced with leucine. In SEQ ID NO: 2, glutamic acid is at position i+3 since it is the first side-chain after the β-bend structure. In SEQ ID NO: 3, proline is at position i+3.
Analogs of SEQ ID NO: 2 and SEQ ID NO: 3 were made to further probe the sequence requirements for TGF-β like activity. To that end, the following peptides were made:
SEQ ID NOs 4-6, which are minor variants of SEQ ID NO: 2, mimicked the biological activities of TGF-β and cytomodulin. […] Alternatively, all peptides with the sequences represented by SEQ ID NOs: 9-16 mimicked at least one biological activity of TGF-β to some degree.

Data set [1] in a line: safety testing of cosmetic grade cytomodulin as a topically administered ingredient. From the text: In particular, the heptapeptide TGF-β mimic, A-N-V-A-E-N-A (SEQ ID NO: 1), termed “cytomodulin,” has been examined and tested as an ingredient in compositions with the potential for improving the condition of skin upon application; a cosmetic grade cytomodulin was first synthesized according to U.S. Pat. No. 5,661,127 and subsequently tested to ensure both its efficacy and safety as a topically administered ingredient.

Residues, ends and D or L forms follow the SMILES beside them.

For “L-I-A-P-E-A (LIAPEA; TGF-beta mimic) [SEQ ID NO: 3, cytomodulin analog]”, the TGF-β like activity entry in the data set with TGF-β is given as “at least as much TGF-β like activity as cytomodulin”.

“L-I-A-E-A-K (LIAEAK; TGF-beta mimic) [SEQ ID NO: 2, cytomodulin analog]”: the TGF-β like activity entry in the data set on TGF-β is “at least as much TGF-β like activity as cytomodulin”.

`CC(C)[C@H](NC(=O)[C@H](CC(N)=O)NC(=O)[C@H](C)N)C(=O)N[C@@H](C)C(=O)N[C@@H](CCC(=O)O)C(=O)N[C@@H](CC(N)=O)C(=O)N[C@@H](C)C(=O)O` [cytomodulin, A-N-V-A-E-N-A] (H-ANVAENA-OH): in data set [1], the toxicity result is “completely non-toxic”.
